Counter-ions that a name gives are not always drawn.
Biological target: IDO2 (Homo sapiens (Human), UniProt Q6ZQW0)
Assay: Cellular IDO2 assay, doxycycline and 5-methoxy-L-tryptophan medium, colorimetric
Type: cell-based
Conditions: cellular level, 72 h incubation, signal at 480 nm
Description: IDO2 inhibition at the cellular level was evaluated in vitro using the following procedure.
Using cell culture medium, the volume of the suspension was adjusted to achieve a cell concentration of 20,000 cells/well (90 uL/well).
5-Methoxy-L-tryptophan powder was dissolved in the culture medium to a concentration of 10 mM, then filtered and sterilized with a 0.22 um filter. Doxycycline powder was dissolved in ddH2O to a concentration of 100 ug/ml, then filtered and sterilized with a 0.22 um filter. 5-aminolevulinic acid powder was dissolved in ddH2O to a concentration of 400 mM, then filtered and sterilized with a 0.22 um filter. A 2× Assay medium was then by diluting the doxycycline (from 100 ug/ml to 2 ug/ml) and 5-Methoxy-L-tryptophan (from 10 mM to 5 mM) in culture medium. The 5-aminolevulinic acid solution was also added to the solution (diluting the concentration from 400 mM to 2 mM) to get a 2× working solution.
After incubation, plates and reagents were allows to equilibrate to room temperature. […] Trichloroacetic acid powder was dissolved in ddH2O to prepare 6.1N trichloroacetic acid. […] The plates were incubated at 55° C. for 40 minutes, and then centrifuged for 10 min at 2500 rpm. […] Measurement of the signal was performed using Envision at 480 nm. Throughout the foregoing process, care was taken to prevent exposure to light.

Chain of IDO2 (Q6ZQW0 whole entry, species assumed): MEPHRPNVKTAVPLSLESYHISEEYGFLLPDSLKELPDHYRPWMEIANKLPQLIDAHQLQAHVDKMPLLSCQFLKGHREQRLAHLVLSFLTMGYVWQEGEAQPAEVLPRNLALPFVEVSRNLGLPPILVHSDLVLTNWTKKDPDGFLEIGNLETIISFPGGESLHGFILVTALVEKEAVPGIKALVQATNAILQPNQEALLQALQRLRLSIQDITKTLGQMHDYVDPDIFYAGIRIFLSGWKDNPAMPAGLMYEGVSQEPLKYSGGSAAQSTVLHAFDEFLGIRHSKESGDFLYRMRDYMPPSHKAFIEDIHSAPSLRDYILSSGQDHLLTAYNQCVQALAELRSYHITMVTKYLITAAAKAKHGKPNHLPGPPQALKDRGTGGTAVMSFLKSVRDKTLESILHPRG

Row | Structure (SMILES) | IC50
1 | CS(=O)(=O)NCc1ccc2c(=O)n3c(nc2c1)C(=O)c1cc(F)ccc1-3 [Compound 95, N-((8-fluoro-6,12-dioxo-6,12-dihydroindolo[2,1-b]quinazolin-3-yl)methyl)methanesulfonamide] | < 50 nM
2 | O=C(NCc1ccc2c(=O)n3c(nc2c1)C(=O)c1cc(F)ccc1-3)OCc1ccccc1 [Compound 96, benzyl ((8-fluoro-6,12-dioxo-6,12-dihydroindolo[2,1-b]quinazolin-3-yl)methyl)carbamate] | < 50 nM
3 | CO/N=C1/c2cc(F)ccc2-n2c1nc1cc(-n3ccnc3)ccc1c2=O [Compound 97, (Z)-8-fluoro-3-(1H-imidazol-1-yl)-6-(methoxyimino)indolo[2,1-b]quinazolin-12(6H)-one] | < 50 nM
4 | O=C1c2cc(F)ccc2-n2c1nc1cc(-n3ccnc3)ccc1c2=O [Compound 98, 8-fluoro-3-(1H-imidazol-1-yl)indolo[2,1-b]quinazoline-6,12-dione] | < 50 nM
5 | CO/N=C1\c2cc(F)ccc2-n2c1nc1cc(CNS(N)(=O)=O)ccc1c2=O [Compound 99] | < 50 nM
6 | CC(=O)NCc1ccc2c(=O)n3c(nc2c1)C(=O)c1cc(F)ccc1-3 [Compound 100, N-((8-fluoro-6,12-dioxo-6,12-dihydroindolo[2,1-b]quinazolin-3-yl)methyl)acetamide] | < 50 nM
7 | NCc1cccc2nc3n(c(=O)c12)-c1ccc(F)cc1C3=O [Compound 101, 1-(aminomethyl)-8-fluoroindolo[2,1-b]quinazoline-6,12-dione] | 50 to 500 nM
8 | NCc1cccc2nc3n(c(=O)c12)-c1ccc(F)cc1C3=O [Compound 102] | < 50 nM
9 | O=C1c2cc(F)ccc2-n2c1nc1cccc(Br)c1c2=O [Compound 103, 1-bromo-8-fluoroindolo[2,1-b]quinazoline-6,12-dione] | < 50 nM
10 | CN(C)Cc1ccc2nc3n(c(=O)c2c1Cl)-c1ccc(C#N)cc1C3=O [Compound 104] | < 50 nM
11 | Cc1ccc2nc3n(c(=O)c2c1Cl)-c1ccc(Br)cc1C3=O [Compound 105] | < 50 nM
12 | CS(=O)(=O)c1ccc2c(c1)C(=O)c1nc3cc(F)cc(F)c3c(=O)n1-2 [Compound 106] | 50 to 500 nM
13 | CN(C)Cc1ccc2nc3n(c(=O)c2c1Cl)-c1ccc(Br)cc1C3=O [Compound 107] | < 50 nM
14 | O=C1c2cc([N+](=O)[O-])ccc2-n2c1nc1ccc(F)c(F)c1c2=O [Compound 108] | 50 to 500 nM
15 | NS(=O)(=O)c1ccc2c(c1)C(=O)c1nc3cc(F)cc(F)c3c(=O)n1-2 [Compound 109] | 50 to 500 nM
16 | O=C1c2cc([N+](=O)[O-])ccc2-n2c1nc1ccc(F)c(Cl)c1c2=O [Compound 110] | < 50 nM
17 | N#Cc1ccc2c(c1)C(=O)c1nc3c(Br)ccc(F)c3c(=O)n1-2 [Compound 111] | 50 to 500 nM
18 | O=C1c2cc(SCc3ccccc3)ccc2-n2c1nc1cc(F)cc(F)c1c2=O [Compound 112] | < 50 nM
19 | N#Cc1ccc2c(c1)C(=O)c1nc3cc(Cl)cc(Cl)c3c(=O)n1-2 [Compound 113] | < 50 nM
20 | N#Cc1ccc2c(c1)C(=O)c1nc3cc(F)cc(F)c3c(=O)n1-2 [Compound 114] | 50 to 500 nM
21 | O=C1c2cc(F)ccc2-n2c1nc1c(NCc3ccc(F)cc3)cccc1c2=O [Compound 115, 8-Fluoro-4-((4-fluorobenzyl)amino)indolo[2,1-b]quinazoline-6,12-dione] | 50 to 500 nM
22 | NS(=O)(=O)c1ccc2c(c1)C(=O)c1nc3c(Cl)cccc3c(=O)n1-2 [Compound 116] | 50 to 500 nM
23 | O=C1c2cc(SCc3ccccc3)ccc2-n2c1nc1c(Cl)cccc1c2=O [Compound 117] | < 50 nM
24 | N#Cc1ccc2c(c1)C(=O)c1nc3c(Nc4ccc(F)cc4)cccc3c(=O)n1-2 [Compound 119, 4-((4-Fluorophenyl)amino)-6,12-dioxo-6,12-dihydroindolo[2,1-b]quinazoline-8-carbonitrile] | < 50 nM
25 | O=C1c2cc(SCc3ccccc3)ccc2-n2c1nc1c(Nc3ccc(F)cc3)cccc1c2=O [Compound 120, 8-(Benzylthio)-4-((4-fluorophenyl)amino)indolo[2,1-b]quinazoline-6,12-dione] | > 500 nM
26 | O=C1c2cc(Br)ccc2-n2c1nc1c(Nc3ccc(F)cc3)cccc1c2=O [Compound 121, 8-bromo-4-((4-fluorophenyl)amino)indolo[2,1-b]quinazoline-6,12-dione] | 50 to 500 nM
27 | O=C1c2cc(F)ccc2-n2c1nc1c(OCc3ccc(F)cc3)cccc1c2=O [Compound 124] | 50 to 500 nM
28 | O=C1c2cc(F)ccc2-n2c1nc1c(Nc3ccc(F)cc3)cccc1c2=O [Compound 125] | 50 to 500 nM

Row | Structure (SMILES) | IC50
29 | CN(C)Cc1ccc2nc3n(c(=O)c2c1)-c1ccc(S(=O)(=O)Cc2ccccc2)cc1C3=O [Compound 127] | < 50 nM
30 | CN(C)Cc1ccc2nc3n(c(=O)c2c1)-c1ccc(Br)cc1C3=O [Compound 128] | < 50 nM
31 | CC1(CCC(=O)Nc2ccc3nc4n(c(=O)c3c2)-c2ccc(F)cc2C4=O)N=N1 [Compound 129] | < 50 nM
32 | CN(C)Cc1ccc2nc3n(c(=O)c2c1)-c1ccc(SCc2ccccc2)cc1C3=O [Compound 130] | > 500 nM
33 | CO/N=C1/c2cc(C#N)ccc2-n2c1nc1ccc(CN3CCOCC3)cc1c2=O [Compound 131, (Z)-6-(methoxyimino)-2-(morpholinomethyl)-12-oxo-6,12-dihydroindolo[2,1-b]quinazoline-8-carbonitrile] | < 50 nM
34 | CO/N=C1/c2cc(F)ccc2-n2c1nc1ccc(-n3ccnc3)cc1c2=O [Compound 132] | < 50 nM
35 | O=C1c2cc(F)ccc2-n2c1nc1ccc(CBr)cc1c2=O [Compound 133, 2-(bromomethyl)-8-fluoroindolo[2,1-b]quinazoline-6,12-dione] | < 50 nM
36 | CO/N=C1/c2cc(F)ccc2-n2c1nc1ccc(CNc3ccccn3)cc1c2=O [Compound 134, (Z)-8-fluoro-6-(methoxyimino)-2-((pyridin-2-ylamino)methyl)indolo[2,1-b]quinazolin-12(6H)-one] | 50 to 500 nM
37 | COc1cc(OC)nc(Nc2ccc3nc4n(c(=O)c3c2)-c2ccc(F)cc2C4=O)n1 [Compound 135, 2-((4,6-dimethoxypyrimidin-2-yl)amino)-8-fluoroindolo[2,1-b]quinazoline-6,12-dione] | < 50 nM
38 | N#Cc1ccc2c(c1)C(=O)c1nc3ccc(CN4CCOCC4)cc3c(=O)n1-2 [Compound 136, 2-(morpholinomethyl)-6,12-dioxo-6,12-dihydroindolo[2,1-b]quinazoline-8-carbonitrile] | < 50 nM
39 | O=C1c2cc(F)ccc2-n2c1nc1ccc(-n3ccnc3)cc1c2=O [Compound 137, 8-fluoro-2-(1H-imidazol-1-yl)indolo[2,1-b]quinazoline-6,12-dione] | < 50 nM
40 | CO/N=C1/c2cc(F)ccc2-n2c1nc1ccc(CN(C)C)cc1c2=O [Compound 138, (Z)-2-((dimethylamino)methyl)-8-fluoro-6-(methoxyimino)indolo[2,1-b]quinazolin-12(6H)-one Trifluoroacetate Salt] | 50 to 500 nM
41 | NC(=O)NCc1ccc2nc3n(c(=O)c2c1)-c1ccc(F)cc1C3=O [Compound 139, 1-((8-fluoro-6,12-dioxo-6,12-dihydroindolo[2,1-b]quinazolin-2-yl)methyl)urea] | < 50 nM
42 | N#C/N=C(\N)NCc1ccc2nc3n(c(=O)c2c1)-c1ccc(F)cc1C3=O [Compound 140, 2-cyano-1-((8-fluoro-6,12-dioxo-6,12-dihydroindolo[2,1-b]quinazolin-2-yl)methyl)guanidine] | < 50 nM
43 | O=C1c2cc(F)ccc2-n2c1nc1ccc(CNc3ccccn3)cc1c2=O [Compound 141, 8-fluoro-2-((pyridin-2-ylamino)methyl)indolo[2,1-b]quinazoline-6,12-dione] | 50 to 500 nM
44 | CC(=O)NCc1ccc2nc3n(c(=O)c2c1)-c1ccc(F)cc1C3=O [Compound 142, N-((8-fluoro-6,12-dioxo-6,12-dihydroindolo[2,1-b]quinazolin-2-yl)methyl)acetamide] | < 50 nM
45 | NS(=O)(=O)NCc1ccc2nc3n(c(=O)c2c1)-c1ccc(F)cc1C3=O [Compound 143] | < 50 nM
46 | NCc1ccc2nc3n(c(=O)c2c1)-c1ccc(F)cc1C3=O [Compound 144, 2-(aminomethyl)-8-fluoroindolo[2,1-b]quinazoline-6,12-dione hydrochloride Salt] | < 50 nM
47 | CS(=O)(=O)NCc1ccc2nc3n(c(=O)c2c1)-c1ccc(F)cc1C3=O [Compound 145, N-((8-fluoro-6,12-dioxo-6,12-dihydroindolo[2,1-b]quinazolin-2-yl)methyl)methanesulfonamide] | < 50 nM
48 | CO/N=C1/c2cc(F)ccc2-n2c1nc1ccc(-c3c[nH]cn3)cc1c2=O [Compound 146] | < 50 nM
49 | N=C(N)NCc1ccc2nc3n(c(=O)c2c1)-c1ccc(F)cc1C3=O [Compound 147, 1-((8-fluoro-6,12-dioxo-6,12-dihydroindolo[2,1-b]quinazolin-2-yl)methyl)guanidine] | 50 to 500 nM
50 | N=C(N)c1ccc2nc3n(c(=O)c2c1)-c1ccc(F)cc1C3=O [Compound 148, 8-fluoro-6,12-dioxo-6,12-dihydroindolo[2,1-b]quinazoline-2-carboximidamide] | < 50 nM
51 | NC(=O)c1ccc2nc3n(c(=O)c2c1)-c1ccc(F)cc1C3=O [Compound 149, 8-fluoro-6,12-dioxo-6,12-dihydroindolo[2,1-b]quinazoline-2-carboxamide] | < 50 nM
52 | COC(=O)c1ccc2nc3n(c(=O)c2c1)-c1ccc(F)cc1C3=O [Compound 150, methyl 8-fluoro-6,12-dioxo-6,12-dihydroindolo[2,1-b]quinazoline-2-carboxylate] | < 50 nM
53 | O=C1c2cc(F)ccc2-n2c1nc1ccc(-c3c[nH]cn3)cc1c2=O [Compound 151, 8-fluoro-2-(1H-imidazol-4-yl)indolo[2,1-b]quinazoline-6,12-dione] | < 50 nM
54 | CC1(O)c2cc(F)ccc2-n2c1nc1ccc(C#N)cc1c2=O (stereo not shown) [Compound 152, 8-fluoro-6-hydroxy-6-methyl-12-oxo-6,12-dihydroindolo[2,1-b]quinazoline-2-carbonitrile] | > 500 nM
55 | O=C(O)c1ccc2nc3n(c(=O)c2c1)-c1ccc(F)cc1C3=O [Compound 153, 8-fluoro-6,12-dioxo-6,12-dihydroindolo[2,1-b]quinazoline-2-carboxylic Acid] | > 500 nM
